Where a name gives a salt, the structure may show the parent alone. Active and inactive are the calls of the source. No cut-off for these calls is given here.
Legend:
Caspase-7 (Homo sapiens) = molecular target: T1, Caspase-7 (Homo sapiens) (UniProt P55210); assay: Activation of caspase 7 activity in IGROV1 cells assessed as DEVD peptide hydrolysis at 5 uM after 24 hrs; assay type: cell-based; settings: IGROV-1
T1 sequence (whole entry): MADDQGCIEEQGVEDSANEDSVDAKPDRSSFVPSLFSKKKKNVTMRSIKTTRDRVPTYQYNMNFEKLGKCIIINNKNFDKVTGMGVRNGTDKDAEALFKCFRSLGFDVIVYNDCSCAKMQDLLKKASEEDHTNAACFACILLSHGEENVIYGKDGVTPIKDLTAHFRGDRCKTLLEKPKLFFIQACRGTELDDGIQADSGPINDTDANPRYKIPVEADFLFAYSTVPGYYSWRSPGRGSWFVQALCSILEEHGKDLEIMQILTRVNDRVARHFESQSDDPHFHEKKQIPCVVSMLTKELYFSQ

Caspase-3 (Homo sapiens) = molecular target: T2, Caspase-3 (Homo sapiens) (UniProt P42574); assay: Activation of caspase 3 activity in IGROV1 cells assessed as DEVD peptide hydrolysis at 5 uM after 24 hrs; assay type: cell-based; settings: IGROV-1
T2 sequence (whole entry): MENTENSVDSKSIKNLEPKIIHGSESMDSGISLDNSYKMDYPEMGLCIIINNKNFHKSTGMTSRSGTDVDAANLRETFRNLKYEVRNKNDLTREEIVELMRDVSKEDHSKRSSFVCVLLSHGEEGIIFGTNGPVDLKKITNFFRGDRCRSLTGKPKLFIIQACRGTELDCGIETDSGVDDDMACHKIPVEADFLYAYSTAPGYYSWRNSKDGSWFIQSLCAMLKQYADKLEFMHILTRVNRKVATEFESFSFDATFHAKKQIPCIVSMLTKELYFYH

[1] = Antitumor activity against CNS tumor cells; assay type: functional; settings: Homo sapiens; for TGI: read-out: pTGI (converted)
[2] = Antitumor activity against breast tumor cells; assay type: functional; settings: Homo sapiens; for TGI: read-out: pTGI (converted)
[3] = Antitumor activity against ovarian tumor cells; assay type: functional; settings: Homo sapiens; for TGI: read-out: pTGI (converted)
[4] = Antitumor activity against colon tumor cells; assay type: functional; settings: Homo sapiens; for TGI: read-out: pTGI (converted)
NSCLC = assay: Antitumor activity against NSCLC cells; assay type: functional; settings: Homo sapiens; for TGI: read-out: pTGI (converted)
[5] = Antitumor activity against prostate tumor cells; assay type: functional; settings: Homo sapiens; for CC50: read-out: Log LC50 (the source's name) (converted); for TGI: read-out: pTGI (converted)
[6] = Antitumor activity against melanoma cells; assay type: functional; settings: Homo sapiens, Melanoma cell; for CC50: read-out: Log LC50 (the source's name) (converted); for TGI: read-out: pTGI (converted)
[7] = Antitumor activity against renal tumor cells; assay type: functional; settings: Homo sapiens; for TGI: read-out: pTGI (converted)
[8] = Antitumor activity against leukemia cells; assay type: functional; settings: Homo sapiens, Leukemia cell; for TGI: read-out: pTGI (converted)

Q: With `COc1cc2c(/C=C3/C(=O)Nc4cccc(Cl)c43)c(Cl)n(C)c2cc1C` as the compound, how does the Activity (Caspase-7 (Homo sapiens)) read?
A: Its Activity is “Active”.

Q: And the Activity (Caspase-3 (Homo sapiens))?
A: Its Activity is “Active”.

Q: Which results are given for `COc1cc2c(/C=C3/C(=O)Nc4c3ccc3ccccc43)c(Cl)n(C)c2cc1C`?
A: GI50 [1]: 0.115 µM; LC50 [1]: 30.9 µM; TGI [1]: 1.62 µM; GI50 [2]: 0.0468 µM; LC50 [2]: 13.8 µM; TGI [2]: 3.02 µM; Activity (Caspase-7 (Homo sapiens)): Active; GI50 [3]: 0.0355 µM; LC50 [3]: 22.9 µM; TGI [3]: 0.562 µM; Activity (Caspase-3 (Homo sapiens)): Active; GI50 [4]: 0.0776 µM; LC50 [4]: 5.13 µM; TGI [4]: 0.129 µM; GI50 (NSCLC): 0.0309 µM; LC50 (NSCLC): 50.1 µM; TGI (NSCLC): 4.79 µM; GI50 [5]: 0.562 µM; CC50 [5]: 25.7 µM; TGI [5]: 2.45 µM; GI50 [6]: 0.0537 µM; CC50 [6]: 36.3 µM; TGI [6]: 6.61 µM; GI50 [7]: 0.0724 µM; LC50 [7]: 22.4 µM; TGI [7]: 2.63 µM; GI50 [8]: 0.0174 µM; TGI [8]: 0.501 µM

Q: What does the source list for `COc1cc2c(/C=C3/C(=O)Nc4ccc(F)cc43)c(Cl)n(Cc3ccccc3)c2cc1C`?
A: Activity (Caspase-7 (Homo sapiens)): Active; Activity (Caspase-3 (Homo sapiens)): Active

Q: With `COc1cc2c(/C=C3/C(=O)Nc4ccc(F)cc43)c(Cl)n(C)c2cc1C` as the compound, how does the Activity (Caspase-7 (Homo sapiens)) read?
A: Its Activity is “Active”.

Q: What about the Activity (Caspase-3 (Homo sapiens)) of the same compound?
A: The Activity was “Active”.

Q: Which results are given for `COc1cc2c(/C=C3/C(=O)Nc4ccc(Cl)cc43)c(Cl)n(Cc3ccc(Cl)cc3)c2cc1C`?
A: Activity (Caspase-7 (Homo sapiens)): Active; Activity (Caspase-3 (Homo sapiens)): Active

Q: With `COc1cc2c(/C=C3/C(=O)Nc4ccccc43)c(Cl)n(C)c2cc1C` as the compound, how does the Activity (Caspase-7 (Homo sapiens)) read?
A: Its Activity is “Active”.

Q: And the Activity (Caspase-3 (Homo sapiens))?
A: The Activity was “Active”.

Q: For `COc1cc2c(/C=C3/C(=O)Nc4ccc(O)cc43)c(Cl)n(Cc3ccc(Cl)cc3)c2cc1C`, which Activity (Caspase-7 (Homo sapiens)) is on record?
A: The Activity was “Active”.

Q: And the Activity (Caspase-3 (Homo sapiens))?
A: Its Activity is “Active”.

Q: Which Activity (Caspase-7 (Homo sapiens)) does the source give for `COc1cc2c(/C=C3/C(=O)Nc4cc(C)c(O)cc43)c(Cl)n(C)c2cc1C` here?
A: The Activity was “Active”.

Q: What about the Activity (Caspase-3 (Homo sapiens)) of the same compound?
A: Its Activity is “Active”.

Q: Which results are given for `COc1cc2c(/C=C3/C(=O)Nc4c3ccc3ccccc43)c(Cl)[nH]c2cc1C`?
A: GI50 [1]: 0.0135 µM; LC50 [1]: 50.1 µM; TGI [1]: 0.794 µM; GI50 [2]: 0.0398 µM; LC50 [2]: 50.1 µM; TGI [2]: 2.04 µM; Activity (Caspase-7 (Homo sapiens)): Active; GI50 [3]: 0.012 µM; LC50 [3]: 47.9 µM; TGI [3]: 0.708 µM; Activity (Caspase-3 (Homo sapiens)): Active; GI50 [4]: 0.017 µM; LC50 [4]: 50.1 µM; TGI [4]: 3.72 µM; GI50 (NSCLC): 0.102 µM; LC50 (NSCLC): 49 µM; TGI (NSCLC): 4.27 µM; GI50 [5]: 0.017 µM; CC50 [5]: 50.1 µM; TGI [5]: 50.1 µM; GI50 [6]: 0.01 µM; CC50 [6]: 40.7 µM; TGI [6]: 3.55 µM; GI50 [7]: 0.0891 µM; LC50 [7]: 50.1 µM; TGI [7]: 30.9 µM; GI50 [8]: 0.0102 µM; TGI [8]: 0.537 µM

Q: With `CC[C@]1(O)C[C@H]2CN(CCc3c([nH]c4ccccc34)[C@@](C(=O)OC)(c3cc4c(cc3OC)N(C=O)[C@H]3[C@@](O)(C(=O)OC)[C@H](OC(C)=O)[C@]5(CC)C=CCN6CC[C@]43[C@@H]65)C2)C1` [VINCRISTINE SULFATE] as the compound, how does the GI50 [1] read?
A: Its GI50 is 0.126 µM.

Q: And the TGI [1]?
A: The TGI was 6.31 µM.

Q: And the GI50 [2]?
A: The GI50 was 0.316 µM.

Q: And the TGI [2]?
A: Its TGI is 7.94 µM.

Q: What about the GI50 [3] of the same compound?
A: Its GI50 is 0.316 µM.

Q: What about the TGI [3] of the same compound?
A: The TGI was 20 µM.

Q: And the GI50 [4]?
A: The GI50 was 0.1 µM.

Q: And the TGI [4]?
A: The TGI was 3.98 µM.

Q: What about the GI50 (NSCLC) of the same compound?
A: Its GI50 is 0.251 µM.

Q: And the TGI (NSCLC)?
A: The TGI was 15.8 µM.

Q: What about the GI50 [5] of the same compound?
A: Its GI50 is 0.126 µM.

Q: And the CC50 [5]?
A: Its CC50 is 316 µM.

Q: What about the TGI [5] of the same compound?
A: The TGI was 6.31 µM.

Q: What about the GI50 [6] of the same compound?
A: The GI50 was 0.158 µM.

Q: What about the CC50 [6] of the same compound?
A: Its CC50 is 251 µM.

Q: And the TGI [6]?
A: Its TGI is 7.94 µM.

Q: What about the GI50 [7] of the same compound?
A: The GI50 was 0.316 µM.

Q: What about the TGI [7] of the same compound?
A: The TGI was 20 µM.

Q: And the GI50 [8]?
A: The GI50 was 0.1 µM.

Q: And the TGI [8]?
A: Its TGI is 15.8 µM.

Q: What does the source list for `COc1cc2c(/C=C3/C(=O)Nc4cccc(Cl)c43)c(Cl)n(Cc3ccc(Cl)cc3)c2cc1C`?
A: Activity (Caspase-7 (Homo sapiens)): Active; Activity (Caspase-3 (Homo sapiens)): Active

Q: Which results are given for `COc1cc2c(/C=C3/C(=O)Nc4ccc(F)cc43)c(Cl)[nH]c2cc1C`?
A: Activity (Caspase-7 (Homo sapiens)): Active; Activity (Caspase-3 (Homo sapiens)): Active

Q: For `COc1cc2c(/C=C3/C(=O)Nc4cc(C)c(O)cc43)c(Cl)n(Cc3ccc(Cl)cc3)c2cc1C`, which Activity (Caspase-7 (Homo sapiens)) is on record?
A: Its Activity is “Active”.

Q: And the Activity (Caspase-3 (Homo sapiens))?
A: The Activity was “Active”.

Q: What does the source list for `COc1cc2c(/C=C3/C(=O)Nc4ccc(Cl)cc43)c(Cl)n(C)c2cc1C`?
A: Activity (Caspase-7 (Homo sapiens)): Active; Activity (Caspase-3 (Homo sapiens)): Active

Q: With `COc1cc2c(/C=C3/C(=O)Nc4ccc(O)cc43)c(Cl)n(C)c2cc1C` as the compound, how does the Activity (Caspase-7 (Homo sapiens)) read?
A: The Activity was “Active”.

Q: And the Activity (Caspase-3 (Homo sapiens))?
A: The Activity was “Active”.

Source: ChEMBL document CHEMBL1145408, “Substituted E-3-(2-chloro-3-indolylmethylene)1,3-dihydroindol-2-ones with antitumor activity. Effect on the cell cycle and apoptosis” (2007)
